Experimental data reported in publication PMC4414309, “Target Modulation by a Kinase Inhibitor Engineered to Induce a Tandem Blockade of the Epidermal Growth Factor Receptor (EGFR) and c-Src: The Concept of Type III Combi-Targeting” (PLoS ONE, 2015).
Where two headings read alike, the source gives them in different places.

Experiments:
4T1 cells [1] = experiment: Boyden chamber invasion assay, 4T1; format: cell-based, mouse; details: for Effect on invasion: 4T1, concentration as low as 0.1 μM, 24h
Procedure: (§1) The invasive property of MDA-MB-231 and 4T1 cells was determined using the Boyden-chamber invasion assay. Cells suspended in serum-free media were plated (120–150,000 cells/well) onto polycarbonate transwell inserts (8 μm pore size, BD Biosciences) coated with matrigel (6%) (BD Biosciences), separating the top and bottom chambers (50 μl/filter). […] The invasive property of cells was observed 24h after treatment by fixing cells in formalin and staining with 0.1% crystal violet (Sigma-Aldrich Canada Ltd). Cells attached on the upper surface of the insert (top chamber) were removed by gently scraping away with a cotton swab, whereas those that invaded onto the lower side of the insert were observed using a microscope (Leica DM IL inverted microscope, 10X). Images of five non-overlapping fields of invading cells were captured using the Leica DFC300FX camera and quantification was done using the Scion Image Analysis (3.53.0.0) software and ImageJ 1.46r software. The results were expressed in terms of percentage of invading cells relative to control and the bar graphs represent the average of three independent experiments.

MDA-MB-231 cells [2] = experiment: Boyden chamber invasion assay, MDA-MB-231; format: cell-based, human; details: for Effect on invasion: MDA-MB-231, concentration as low as 0.1 μM, 24h
Procedure: as §1

NIH3T3 wild type cells = experiment: Growth inhibition, sulforhodamine B (SRB) assay, NIH3T3 wild type; details: Mus musculus, NIH3T3, 120 h, read-out: IC50 growth inhibition NIH3T3 – Wt
Procedure: (§3) Growth inhibition was measured in cells using the sulforhodamine B (SRB) assay [48]. […] The plates were subsequently rinsed with 1% acetic acid, and allowed to dry overnight. […] The results were analyzed using GraphPad Prism 6.0 (GraphPadSoftware, Inc., San Diego, CA) and the sigmoidal dose response curve was used to determine IC50 values. Each experiment was carried out at least four times, in triplicate.

[3] = LC-MS analysis of AL776 hydrolysis in plasma in vivo; parameters: species or system CD-1 mice; details: AL776 80 mg/kg i.v., after 30 min
Procedure: CD-1 mice were divided into groups of three and treated with 80 mg/kg of AL776, injected intraperitoneally (i.p) or intravenously (i.v). Mice were sacrificed and their plasma was collected for further analysis after 0, 5, 15 and 30 min after drug treatment. Plasma samples were extracted using twice the volume of methanol and lysed at 13,000 rpm for 30 min at 4°C. The resulting supernatant from each sample was collected, filtered and evaporated to dryness before reconstituting in 100 μL of methanol. LC-MS analyses were performed on a Synapt G2-S instrument coupled with an Acquity UPLC Class I system both from Waters. Elution rate was set at 500 μL/min using an Eclipse XDB C8, 3.5 um, 2.1 x 100 mm chromatographic column from Agilent Technologies. The experiments were performed with the following eluents: 0.1% aqueous formic acid (eluent A) and methanol (eluent B). The initial mobile phase was 30% B, which was maintained for 0.2 min at the beginning of the run. The following gradient elution was subsequently applied: 30 to 50% B from 0.2 to 4 min; 50 to 80% B from 4 to 10 min; held at 80% B from 10 to 11 min. Thereafter, eluent B was decreased to 30% in 0.2 min and held constant for up to 15 min to allow the column to equilibrate. Each sample was diluted with methanol in order to avoid detector saturation and […] aliquots of the resulting solutions were injected. Analyses were performed with the electrospray interface in positive ion mode and mass spectra acquired from m/z 100 to 1200. For accurate mass determination, Leucine Enkephalin was used as lock mass. The MassLynx software was used for instrument control, data acquisition and data processing.

MDA-MB-231 cells [4] = experiment: Growth inhibition, SRB assay, MDA-MB-231; details: Homo sapiens, MDA-MB-231, 120 h, read-out: IC50 growth inhibition MDA-MB-231
Procedure: as §3

4T1 cells [5] = experiment: Growth inhibition, SRB assay, 4T1; details: Mus musculus, 4T1, 120 h, read-out: IC50 growth inhibition 4T1
Procedure: as §3

EGFR [6] = molecular target: T1, EGFR (Homo sapiens, UniProt P00533); experiment: In vitro kinase assay, EGFR; format: biochemical; details: ATP 50 μM, average of three independent experiments in duplicate, read-out: IC50 EGFR kinase inhibition
T1 construct: purchased Enzo Life Sciences Inc, NY, USA; Signal Chem, Richmond, Canada
T1 sequence (P00533 25-1210): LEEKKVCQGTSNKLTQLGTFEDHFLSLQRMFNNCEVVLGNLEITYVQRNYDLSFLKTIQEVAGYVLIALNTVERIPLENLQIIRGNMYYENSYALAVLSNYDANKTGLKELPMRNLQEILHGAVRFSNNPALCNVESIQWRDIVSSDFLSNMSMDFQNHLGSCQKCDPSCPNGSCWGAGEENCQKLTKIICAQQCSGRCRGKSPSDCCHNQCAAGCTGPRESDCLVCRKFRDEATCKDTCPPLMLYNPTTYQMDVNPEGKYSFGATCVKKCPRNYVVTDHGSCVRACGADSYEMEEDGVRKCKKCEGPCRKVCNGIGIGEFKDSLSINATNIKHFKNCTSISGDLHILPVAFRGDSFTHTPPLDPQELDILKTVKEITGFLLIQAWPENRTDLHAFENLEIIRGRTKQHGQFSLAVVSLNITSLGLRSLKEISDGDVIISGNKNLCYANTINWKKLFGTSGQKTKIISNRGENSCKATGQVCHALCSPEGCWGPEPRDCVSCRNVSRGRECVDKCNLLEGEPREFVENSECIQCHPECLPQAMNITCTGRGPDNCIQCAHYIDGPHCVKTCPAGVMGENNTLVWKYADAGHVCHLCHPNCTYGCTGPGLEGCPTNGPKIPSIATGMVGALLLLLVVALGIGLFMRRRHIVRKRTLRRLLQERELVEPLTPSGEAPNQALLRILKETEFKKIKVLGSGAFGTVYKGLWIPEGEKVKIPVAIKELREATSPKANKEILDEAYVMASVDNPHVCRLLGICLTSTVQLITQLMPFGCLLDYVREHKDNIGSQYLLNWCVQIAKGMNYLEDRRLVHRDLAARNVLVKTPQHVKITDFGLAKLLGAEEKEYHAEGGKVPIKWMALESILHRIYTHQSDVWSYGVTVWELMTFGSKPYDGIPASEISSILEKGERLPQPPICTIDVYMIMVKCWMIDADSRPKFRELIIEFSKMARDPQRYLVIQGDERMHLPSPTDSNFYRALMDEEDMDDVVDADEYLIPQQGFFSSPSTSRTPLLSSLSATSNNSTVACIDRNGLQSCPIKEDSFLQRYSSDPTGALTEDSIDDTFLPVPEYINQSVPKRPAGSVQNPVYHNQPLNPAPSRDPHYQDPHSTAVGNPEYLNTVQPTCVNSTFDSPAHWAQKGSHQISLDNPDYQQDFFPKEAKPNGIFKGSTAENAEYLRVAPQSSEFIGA
Procedure: (§2) The EGFR and c-Src kinase assays were performed in 96-well plates (NuncMaxisorp) coated with PGT (poly L-glutamic acid L-tyrosine, 4:1, Sigma Aldrich, MO, USA) and incubated at 37°C for 48h prior to using. PGT served as the substrate to be phosphorylated by EGFR (Enzo Life Sciences Inc, NY, USA, Signal Chem, Richmond, Canada) and c-Src (Enzo Life Sciences Inc, NY, USA, Signal Chem, Richmond, Canada) in the presence of ATP (50 μM). […] To each well, 15 ng of EGFR (20 μg/ml) or 6 ng of c-Src (0.1 μg/μl) were added. The phosphorylated substrate was detected using an HRP-conjugated anti-phosphotyrosine antibody (Santa Cruz Biotechnology, CA). The signal was developed by the addition of 3, 3’, 5, 5’-tetramethylbenzidine peroxidase substrate (Kierkegaard and Perry Laboratories, Gaithersburg, MD) and the colorimetric reaction was monitored at 450 nm using a microplate reader ELx808 (BioTek Instruments). The IC50 values were calculated using GraphPad Prism 6.0 (GraphPadSoftware, Inc., San Diego, CA). Each experiment was carried out at least three times, in duplicate.

c-Src = molecular target: T2, c-Src (Homo sapiens, UniProt P12931); experiment: In vitro kinase assay, c-Src; format: biochemical; details: ATP 50 μM, read-out: IC50 c-Src kinase inhibition
T2 construct: purchased Enzo Life Sciences Inc, NY, USA; Signal Chem, Richmond, Canada
T2 sequence (P12931 whole entry): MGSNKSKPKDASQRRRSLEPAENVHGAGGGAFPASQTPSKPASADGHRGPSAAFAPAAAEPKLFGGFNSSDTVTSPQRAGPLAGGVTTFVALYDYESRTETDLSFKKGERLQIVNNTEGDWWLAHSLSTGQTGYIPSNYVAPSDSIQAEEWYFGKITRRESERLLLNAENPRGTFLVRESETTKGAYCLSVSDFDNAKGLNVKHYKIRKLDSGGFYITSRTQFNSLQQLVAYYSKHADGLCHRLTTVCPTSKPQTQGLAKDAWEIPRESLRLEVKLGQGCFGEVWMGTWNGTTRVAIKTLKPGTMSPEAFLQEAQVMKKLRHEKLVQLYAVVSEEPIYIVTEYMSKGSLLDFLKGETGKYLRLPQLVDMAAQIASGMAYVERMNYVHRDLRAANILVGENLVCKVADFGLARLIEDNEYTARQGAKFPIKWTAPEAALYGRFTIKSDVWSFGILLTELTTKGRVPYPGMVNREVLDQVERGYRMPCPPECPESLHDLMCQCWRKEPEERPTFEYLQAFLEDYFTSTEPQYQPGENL
Procedure: as §2

EGFR [7] = molecular target: T1, EGFR; parameters: method as in PMID 22943437; details: read-out: IC50 EGFR kinase inhibition (published); cited from earlier work
EGFR [8] = molecular target: T1, EGFR; experiment: Published EGFR kinase inhibition of AL621; format: biochemical; details: published IC50 of AL621 compared with AL776
[9] = average of three independent experiments in duplicate

With `COc1cc2ncnc(Nc3ccc(F)c(Cl)c3)c2cc1OCCCN1CCOCC1` [Gefitinib, gefitinib] the “Anti-invasive effect weaker than dasatinib” value (4T1 cells [1]; 4T1) was 2-3 fold, the Effect on invasion (4T1 cells [1]) was “mostly unable to block invasion” and the “Anti-invasive effect weaker than dasatinib” value (MDA-MB-231 cells [2]; MDA-MB-231) was 2-3 fold. For the same molecule, the Effect on invasion (MDA-MB-231 cells [2]) was “mostly unable to block invasion”.
In the case of `Cc1nc(Nc2ncc(C(=O)Nc3c(C)cccc3Cl)s2)cc(N2CCN(CCO)CC2)n1` [Dasatinib, dasatinib, reference compound], the Effect on invasion (4T1 cells [1]) is reported as “strongly inhibited invasion”, the Effect on invasion (MDA-MB-231 cells [2]) is reported as “strongly inhibited invasion” and the IC50 (NIH3T3 wild type cells) is reported as 16400 ± 5200 nM. For the same molecule, the “Plasma level as metabolite of AL776” value [3] was “abundant levels”, the IC50 (MDA-MB-231 cells [4]) was 20 ± 10 nM and the IC50 (4T1 cells [5]) was 50 ± 20 nM.
For `Cc1nc(Nc2ncc(C(=O)Nc3c(C)cccc3Cl)s2)cc(N2CCN(CCOC(=O)OCCN3CCN(CCNc4ccc5ncnc(Nc6cccc(Br)c6)c5c4)CC3)CC2)n1` [VI], the IC50 (EGFR [6]) was 1100 ± 300 nM and the IC50 (c-Src; [9]) was 40 ± 10 nM.
In the case of `Cc1nc(Nc2ncc(C(=O)Nc3c(C)cccc3Cl)s2)cc(N2CCN(CCOC(=O)c3cnc(C(=O)Nc4ccc5ncnc(Nc6cccc(Cl)c6)c5c4)cn3)CC2)n1` [III], the IC50 (EGFR [6]) is reported as 600 ± 200 nM and the IC50 (c-Src) is reported as less than 0.1 nM.
In the case of `Cc1nc(Nc2ncc(C(=O)Nc3c(C)cccc3Cl)s2)cc(N2CCN(CCOC(=O)CCC(=O)Nc3ccc4ncnc(Nc5cccc(Cl)c5)c4c3)CC2)n1` [IV], the IC50 (EGFR [6]) is reported as 400 ± 100 nM and the IC50 (c-Src; [9]) is reported as 8 ± 3 nM.
For `CN(CCO)Cc1ccc(C(=O)Nc2ccc3ncnc(Nc4cccc(Cl)c4)c3c2)cc1` [AL621], the IC50 (EGFR [7]) is given as 3 nM, the “EGFR kinase potency relative to intact AL776” value (EGFR [8]) is given as “ca. 40 fold” and the “Plasma level as metabolite of AL776” value [3] is given as “abundant levels”.
